Entries after “also recorded” stand apart in the source; their conditions may differ. Read-outs that look alike come from different tables or passages of the source.
How the values were obtained:
[1] = Cytotoxicity against mammalian cells; type: cell-based, rat
Protocol: (§1) In vitro tests for the activity against Trypanosoma brucei rhodesiense (bloodstream trypomastigotes, STIB 900 strain), T. cruzi (amastigotes, Tulahuen C4 strain), Leishmania donovani (amastigotes, MHOM-ET-67/L82 strain), Plasmodium falciparum (intraerythrocytic forms, NF54 IEF strain), as well as for cytotoxicity against mammalian cells (L6-cell-line from rat-skeletal myoblasts) were performed according to established protocols as reported previously, e.g, in [33].

[2] = test system: Trypanosoma brucei rhodesiense (bloodstream trypomastigotes, STIB 900 strain); assay: In vitro activity against Trypanosoma brucei rhodesiense; type: cell-based; conditions: for IC50: Trypanosoma brucei, read-out: IC50 T. b. rhodesiense; for SI T. b. rhodesiense: selectivity index determined with L6 cells
Protocol: (§2) As part of an extensive screening of Asteraceae from the Brazilian “Cerrado”, extracts obtained from the leaves of Aldama discolor with solvents of different polarity (n-hexane (Hex), dichloromethane (DCM), ethyl acetate (EtOAc) and methanol (MeOH)) were tested for in vitro activity against Trypanosoma brucei rhodesiense (bloodstream trypomastigotes), T. cruzi (intracellular amastigotes), Leishmania donovani (axenic amastigotes) and Plasmodium falciparum (intraerythrocytic forms). Each extract was tested at two concentrations, 2 and 10 μ g/mL, for growth inhibitory activity (% GI) against the various parasites.
as §1

[3] = test system: Leishmania donovani (amastigotes, MHOM-ET-67/L82 strain); assay: In vitro activity against Leishmania donovani; type: cell-based; conditions: for IC50: Leishmania donovani, MHOM-ET-67/L82 strain, amastigotes, geometric mean of 2 experiments ±SE (values marked a: only one experiment), read-out: IC50 L. donovani; for SI L. donovani: selectivity index determined with L6 cells
Protocol: as §2, §1

[4] = test system: Plasmodium falciparum (intraerythrocytic forms, NF54 IEF strain); assay: In vitro activity against Plasmodium falciparum; type: cell-based; conditions: for SI P. falciparum: selectivity index determined with L6 cells
Protocol: as §2, §1

[5] = test system: T. cruzi (amastigotes, Tulahuen C4 strain); assay: In vitro activity against T. cruzi; type: cell-based, Trypanosoma cruzi; conditions: for IC50: Trypanosoma cruzi, Tulahuen C4 strain, amastigotes, geometric mean of 2 experiments ±SE (values marked a: only one experiment); for SI T. cruzi: selectivity index determined with L6 cells
Protocol: as §2, §1

T.b. brucei = test system: T.b. brucei; set-up: method as in PMID 21843897; conditions: cited from earlier work
T. b. rhodesiense = test system: T. b. rhodesiense; set-up: method as in PMID 24165182; conditions: in words; cited from earlier work
[6] = test system: trypomastigote forms of T. cruzi (Y strain); set-up: method as in PMID 18688888; conditions: in vitro, read-out: IC50 against trypomastigote forms of T. cruzi; cited from earlier work
erythrocytes = test system: erythrocytes; set-up: method as in PMID 15104493; conditions: cited from earlier work
P. falciparum K-1 strain = test system: P. falciparum K-1 strain; set-up: method as in PMID 16309313; conditions: read-out: IC50 antiplasmodial activity; cited from earlier work
P. falciparum strain 3D7 = test system: P. falciparum strain 3D7; set-up: method as in PMID 15104493; conditions: read-out: IC50 in vitro antiplasmodial effect; cited from earlier work
[7] = STIB 900 strain, trypomastigotes, geometric mean of 2 experiments ±SE (values marked a: only one experiment)
[8] = NF54 strain, intra-erythrocytic stages, geometric mean of 2 experiments ±SE (values marked a: only one experiment), read-out: IC50 P. falciparum
[9] = Plasmodium falciparum, NF54, NF54 strain, intra-erythrocytic stages, geometric mean of 2 experiments ±SE (values marked a: only one experiment), read-out: IC50 P. falciparum
[10] = L6-cell-line from rat-skeletal myoblasts, geometric mean of 2 experiments ±SE, read-out: IC50 L6 Cells (cytotoxicity)

For C=CC1(C)CCC2=C(C1)C(=O)CC1C(C)(CO)CCCC21C (single isomer, unassigned; ent-7) [Compound 2, ent-7-oxo-pimara-8,15-diene-18-ol], the IC50 ([1]; rat) was 48.3 ± 5.9 µM, the IC50 [2, 7] was 24.3 µM and the “SI T. b. rhodesiense” value [2] was 2. For the same molecule, the IC50 [3] was 18.2 µM, the “SI L. donovani” value [3] was 3 and the IC50 [4, 8] was 3.8 µM. For the same molecule, the IC50 [4, 9] was 3.85 µM, the “SI P. falciparum” value [4] was 13 and the IC50 [5] was 15.4 µM. For the same molecule, the “SI T. cruzi” value [5] was 3.

COc1cc([C@@H]2c3cc4c(cc3[C@H](O)[C@H]3COC(=O)[C@H]23)OCO4)cc(OC)c1OC [podophyllotoxin, reference compound] gave an IC50 [1, 10] of 0.008 µM.

In the case of C=C1C(=O)C23CCC4C(C)(C)CCCC4(C)C2C(O)CC1C3 (single isomer, unassigned; ent-16) [11α-Hydroxy-ent-16-kauren-15-one], the SI (T.b. brucei; cytotoxicity determined with a human embryonic cell line (MRC-5)) is given as 3.2 and the IC50 (T.b. brucei; read-out: IC50 against T.b. brucei) is given as 0.761 µM.

For CCCCCCCCCCCCCCCCOP(=O)([O-])OCC[N+](C)(C)C [miltefosine, reference compound], the IC50 [3] was 0.049 ± 0.001 µM.

With C=CC1(C)C=C2C(O)CC3C4(C)COC(C4)CC3(C)C2CC1 (stereo not drawn) [Compound 4, ent-2S,4S-2,19-epoxy-pimara-8(14),15-diene-7β-ol] the IC50 ([1]; rat) was 101 ± 45.7 µM, the IC50 [2, 7] was 47.3 ± 4.1 µM and the “SI T. b. rhodesiense” value [2] was 2. For the same molecule, the IC50 [3] was 21.9 µM, the “SI L. donovani” value [3] was 5 and the IC50 [4, 9] was 16.1 ± 6.1 µM. For the same molecule, the “SI P. falciparum” value [4] was 6, the IC50 [5] was 58.9 µM and the “SI T. cruzi” value [5] was 2.

In the case of C=C1C(=O)O[C@@H]2/C=C(/CO)C3=CC(=O)[C@@](C)(C[C@@H](OC(=O)/C(C)=C/C)[C@@H]12)O3 [Compound 5, budlein A], the “activity against T. b. rhodesiense in vitro” value (T. b. rhodesiense) is given as “strong anti-T. b. rhodesiense activity; also recorded: exceptionally strong activity”.

In the case of 3β-acetoxy-ent-8(14),15-pimaradiene, the IC50 [6] is given as 149 µM.

Work on CCN(CC)CCCC(C)Nc1ccnc2cc(Cl)ccc12 (centres unmarked) [chloroquine, reference compound] yielded an IC50 ([4]; Plasmodium falciparum, NF54, read-out: IC50 P. falciparum) of 0.003 ± 0.001 µM.

Work on O=C(Cn1ccnc1[N+](=O)[O-])NCc1ccccc1 [benznidazole, reference compound] yielded an IC50 [5] of 0.653 ± 0.135 µM.

With C=CC1(C)CCC2=C(C1)C(=O)CC1C2(C)CCC(O)C1(C)C (single isomer, unassigned; ent-7) [Compound 3, ent-7-oxo-pimara-8,15-diene-3β-ol] the IC50 ([1]; rat) was 69.3 ± 10.9 µM, the IC50 [3] was 13.8 µM and the “SI L. donovani” value [3] was 5. The IC50 [4, 9] was 16.5 ± 4.9 µM, the “SI P. falciparum” value [4] was 4 and the IC50 [5] was 19.4 µM. For the same molecule, the “SI T. cruzi” value [5] was 4.

For C=C[C@]1(C)C=C2CC[C@H]3[C@](C)(CO)[C@@H](O)CC[C@]3(C)[C@H]2CC1 [8(14),15-isopimaradien-3β,19-diol], the effect on erythrocytes (erythrocytes) is listed as “induced echinocytosis at low concentrations and caused pronounced cell lysis”.

In the case of C=CC1(C)C=C2CCC3C(C)(C)CCC(O)C3(C)C2C(O)C1 (centres unmarked) [1,11-dihydroxypimara-8(14),15-diene], the IC50 (P. falciparum K-1 strain) is listed as 9.8 µM.

With C=C1C[C@@]23CC[C@@H]4[C@](C)(CO)[C@H](O)CC[C@@]4(C)[C@@H]2CC[C@@H]1C3 (single isomer, unassigned; ent-3) [Compound 1, ent-3-α-hydroxy-kaur-16-en-18-ol] the IC50 [1, 10] was 40.2 ± 5.5 µM, the IC50 [2, 7] was 20.1 ± 0.5 µM and the “SI T. b. rhodesiense” value [2] was 2. For the same molecule, the IC50 [3] was 2.5 ± 1.5 µM, the “SI L. donovani” value [3] was 16 and the IC50 [4, 8] was 3.5 ± 0.2 µM. For the same molecule, the IC50 [4, 9] was 3.54 µM, the “SI P. falciparum” value [4] was 11 and the IC50 [5] was 55.6 µM. For the same molecule, the “SI T. cruzi” value [5] was 1.

In the case of C=CC1(C)C=C2CCC3C(C)(C)CC(O)C(O)C3(C)C2C(O)C1 (centres unmarked) [1,2,11-trihydroxypimara-8(14),15-diene], the IC50 (P. falciparum K-1 strain) is listed as 27.4 µM.

In the case of C=C[C@@]1(C)CC[C@@H]2[C@](O)(CC[C@@H]3[C@](C)(CO)CCC[C@]32C)C1 (single isomer, unassigned; ent-15) [ent-15-pimarene-8β,19-diol], the IC50 [6] is given as 116 µM.

Molecule Nc1nc(N)nc(Nc2ccc([As]3SCC(CO)S3)cc2)n1 (centres unmarked) [melarsoprol, reference compound] has an IC50 [2] of 0.025 ± 0.0005 µM.

For C=C[C@@]1(C)CCC2=C(CC[C@H]3C(C)(C)[C@@H](O)CC[C@]23C)C1 [8(9),15-isopimaradien-3β-ol], the IC50 (P. falciparum strain 3D7) is listed as 24.5 µM.

From PMC6274167, “ent-Pimarane and ent-Kaurane Diterpenes from Aldama discolor (Asteraceae) and Their Antiprotozoal Activity” (Molecules, 2016)
